Like-named read-outs stand apart in the source and are kept apart here.
Experiments:
Test in all cases: HotSpot kinase profiling
Type in all cases: biochemical
GSK3a = molecular target: T1, GSK3a (Homo sapiens, UniProt P49840)
T1 construct: purchased Reaction Biology Corp
In short: (§1)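 Percent inhibition, averaged when run more than once and referenced to a DMSO negative control, came from a radioactive filter-binding readout on P81 paper. Reactions of kinase with freshly made substrate and cofactors ran for 2 h at room temperature.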

ITK = molecular target: T2, ITK (Homo sapiens, UniProt Q08881)
T2 construct: purchased Reaction Biology Corp
T2 sequence (Q08881 1-620): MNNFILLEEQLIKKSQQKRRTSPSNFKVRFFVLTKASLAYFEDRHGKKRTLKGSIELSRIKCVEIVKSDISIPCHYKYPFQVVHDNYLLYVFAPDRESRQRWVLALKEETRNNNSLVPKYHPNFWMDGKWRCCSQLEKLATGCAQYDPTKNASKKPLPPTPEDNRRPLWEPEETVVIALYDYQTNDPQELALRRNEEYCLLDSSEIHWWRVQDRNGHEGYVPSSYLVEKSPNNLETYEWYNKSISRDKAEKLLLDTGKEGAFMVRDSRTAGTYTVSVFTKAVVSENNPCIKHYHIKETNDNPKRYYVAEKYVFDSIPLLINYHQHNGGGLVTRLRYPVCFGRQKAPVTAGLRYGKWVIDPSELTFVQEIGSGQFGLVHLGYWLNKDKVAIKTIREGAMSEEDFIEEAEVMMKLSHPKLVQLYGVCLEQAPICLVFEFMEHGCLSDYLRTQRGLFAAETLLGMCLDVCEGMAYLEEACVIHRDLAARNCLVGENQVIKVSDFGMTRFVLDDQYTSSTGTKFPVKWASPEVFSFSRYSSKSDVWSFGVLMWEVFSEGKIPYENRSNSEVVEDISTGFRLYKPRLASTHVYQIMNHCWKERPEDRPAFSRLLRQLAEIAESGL
In short: as §1

NEK5 = molecular target: T3, NEK5 (Homo sapiens, UniProt Q6P3R8)
T3 construct: purchased Reaction Biology Corp
T3 sequence (Q6P3R8 1-708): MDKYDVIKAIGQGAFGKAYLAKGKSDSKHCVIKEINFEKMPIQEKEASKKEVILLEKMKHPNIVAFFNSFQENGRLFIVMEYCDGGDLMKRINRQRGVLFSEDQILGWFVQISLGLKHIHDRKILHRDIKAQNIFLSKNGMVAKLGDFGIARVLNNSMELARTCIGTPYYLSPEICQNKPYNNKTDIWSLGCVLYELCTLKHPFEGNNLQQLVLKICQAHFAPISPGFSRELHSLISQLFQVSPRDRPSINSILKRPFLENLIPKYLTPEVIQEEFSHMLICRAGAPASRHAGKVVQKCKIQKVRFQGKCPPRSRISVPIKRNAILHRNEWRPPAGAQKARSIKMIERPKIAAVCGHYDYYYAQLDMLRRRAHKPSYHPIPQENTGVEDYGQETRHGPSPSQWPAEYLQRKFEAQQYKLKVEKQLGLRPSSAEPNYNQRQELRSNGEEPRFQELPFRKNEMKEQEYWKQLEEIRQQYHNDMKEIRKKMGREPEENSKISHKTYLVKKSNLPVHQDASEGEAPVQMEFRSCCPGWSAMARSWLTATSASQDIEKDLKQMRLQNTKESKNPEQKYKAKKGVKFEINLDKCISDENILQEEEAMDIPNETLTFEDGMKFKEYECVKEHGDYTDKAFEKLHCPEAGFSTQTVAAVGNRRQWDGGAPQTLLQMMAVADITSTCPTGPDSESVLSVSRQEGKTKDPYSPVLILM
In short: as §1

PASK = molecular target: T4, PASK (Homo sapiens, UniProt Q96RG2)
T4 construct: purchased Reaction Biology Corp
T4 sequence (Q96RG2 whole entry): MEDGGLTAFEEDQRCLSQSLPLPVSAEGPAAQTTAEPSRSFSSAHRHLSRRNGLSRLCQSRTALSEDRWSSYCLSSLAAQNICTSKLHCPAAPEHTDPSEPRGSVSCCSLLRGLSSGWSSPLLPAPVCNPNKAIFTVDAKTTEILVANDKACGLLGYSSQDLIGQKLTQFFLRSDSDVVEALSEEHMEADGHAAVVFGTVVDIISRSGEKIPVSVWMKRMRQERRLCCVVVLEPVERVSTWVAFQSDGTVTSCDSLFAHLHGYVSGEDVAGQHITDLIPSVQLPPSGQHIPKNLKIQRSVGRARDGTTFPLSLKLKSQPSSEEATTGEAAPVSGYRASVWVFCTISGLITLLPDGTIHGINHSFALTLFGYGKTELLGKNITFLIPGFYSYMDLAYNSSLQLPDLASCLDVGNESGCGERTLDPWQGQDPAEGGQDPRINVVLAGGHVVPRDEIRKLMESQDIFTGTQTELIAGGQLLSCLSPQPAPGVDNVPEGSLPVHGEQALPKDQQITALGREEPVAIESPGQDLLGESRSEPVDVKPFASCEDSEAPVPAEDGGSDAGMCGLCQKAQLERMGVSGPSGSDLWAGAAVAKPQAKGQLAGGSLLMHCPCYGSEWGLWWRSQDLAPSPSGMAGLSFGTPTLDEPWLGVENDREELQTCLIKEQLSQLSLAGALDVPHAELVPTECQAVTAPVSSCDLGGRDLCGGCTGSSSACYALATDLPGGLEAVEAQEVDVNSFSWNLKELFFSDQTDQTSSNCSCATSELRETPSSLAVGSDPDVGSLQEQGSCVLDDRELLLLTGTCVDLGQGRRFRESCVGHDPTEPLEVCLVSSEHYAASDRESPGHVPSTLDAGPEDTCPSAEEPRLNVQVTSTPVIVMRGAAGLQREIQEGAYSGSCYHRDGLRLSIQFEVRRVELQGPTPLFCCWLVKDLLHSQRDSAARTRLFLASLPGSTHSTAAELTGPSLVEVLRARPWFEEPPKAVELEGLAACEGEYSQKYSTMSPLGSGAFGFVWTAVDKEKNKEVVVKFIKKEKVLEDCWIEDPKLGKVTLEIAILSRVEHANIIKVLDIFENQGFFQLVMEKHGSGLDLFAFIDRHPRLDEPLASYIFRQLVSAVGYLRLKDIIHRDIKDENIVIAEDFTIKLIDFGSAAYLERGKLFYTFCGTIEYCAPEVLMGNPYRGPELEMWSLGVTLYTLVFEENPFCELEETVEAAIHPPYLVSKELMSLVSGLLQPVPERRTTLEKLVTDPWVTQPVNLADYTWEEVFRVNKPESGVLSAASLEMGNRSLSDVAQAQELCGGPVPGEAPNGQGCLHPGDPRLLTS
In short: as §1

PKCtheta = molecular target: T5, PKCtheta (Homo sapiens, UniProt Q04759)
T5 construct: purchased Reaction Biology Corp
T5 sequence (Q04759 whole entry): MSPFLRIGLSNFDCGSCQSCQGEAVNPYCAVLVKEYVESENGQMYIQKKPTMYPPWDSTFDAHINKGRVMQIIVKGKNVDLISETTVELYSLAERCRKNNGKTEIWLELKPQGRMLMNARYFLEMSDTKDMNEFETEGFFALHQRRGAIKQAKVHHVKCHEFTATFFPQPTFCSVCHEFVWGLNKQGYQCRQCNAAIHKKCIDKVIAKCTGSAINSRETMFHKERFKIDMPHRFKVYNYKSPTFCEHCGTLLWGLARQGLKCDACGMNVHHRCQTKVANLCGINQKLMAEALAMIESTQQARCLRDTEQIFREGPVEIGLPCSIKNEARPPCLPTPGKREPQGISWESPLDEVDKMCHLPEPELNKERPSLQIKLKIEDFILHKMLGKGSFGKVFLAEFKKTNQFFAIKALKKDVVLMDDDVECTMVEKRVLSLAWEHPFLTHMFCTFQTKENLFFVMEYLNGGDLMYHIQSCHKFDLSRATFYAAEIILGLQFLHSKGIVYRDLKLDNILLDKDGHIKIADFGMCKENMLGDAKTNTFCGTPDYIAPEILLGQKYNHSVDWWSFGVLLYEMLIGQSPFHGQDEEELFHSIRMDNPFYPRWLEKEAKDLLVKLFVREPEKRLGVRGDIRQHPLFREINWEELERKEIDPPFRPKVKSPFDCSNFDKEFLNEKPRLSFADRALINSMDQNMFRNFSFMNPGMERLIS
In short: as §1

TLK2 = molecular target: T6, TLK2 (Homo sapiens, UniProt Q86UE8)
T6 construct: purchased Reaction Biology Corp
T6 sequence (Q86UE8 whole entry): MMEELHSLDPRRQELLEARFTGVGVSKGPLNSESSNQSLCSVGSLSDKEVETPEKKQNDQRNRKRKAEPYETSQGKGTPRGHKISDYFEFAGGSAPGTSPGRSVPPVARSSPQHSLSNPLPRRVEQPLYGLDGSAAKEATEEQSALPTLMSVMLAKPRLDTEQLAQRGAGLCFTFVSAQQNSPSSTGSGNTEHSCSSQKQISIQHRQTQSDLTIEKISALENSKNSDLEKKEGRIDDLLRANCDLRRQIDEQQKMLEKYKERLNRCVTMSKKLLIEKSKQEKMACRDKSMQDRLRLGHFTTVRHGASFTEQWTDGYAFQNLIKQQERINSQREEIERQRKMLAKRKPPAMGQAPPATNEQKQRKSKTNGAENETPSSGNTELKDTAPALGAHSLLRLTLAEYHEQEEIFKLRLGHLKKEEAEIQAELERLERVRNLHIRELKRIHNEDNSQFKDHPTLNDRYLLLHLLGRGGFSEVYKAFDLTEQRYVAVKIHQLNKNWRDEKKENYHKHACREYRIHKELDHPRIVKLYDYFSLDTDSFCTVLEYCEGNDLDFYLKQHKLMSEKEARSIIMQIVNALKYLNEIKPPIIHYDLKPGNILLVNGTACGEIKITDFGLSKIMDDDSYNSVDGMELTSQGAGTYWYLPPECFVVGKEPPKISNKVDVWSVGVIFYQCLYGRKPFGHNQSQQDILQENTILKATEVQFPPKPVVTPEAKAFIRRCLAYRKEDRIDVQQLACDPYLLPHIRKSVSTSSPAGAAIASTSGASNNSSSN
In short: as §1

TNK1 = molecular target: T7, TNK1 (Homo sapiens, UniProt Q13470)
T7 construct: purchased Reaction Biology Corp
T7 sequence (Q13470 1-666): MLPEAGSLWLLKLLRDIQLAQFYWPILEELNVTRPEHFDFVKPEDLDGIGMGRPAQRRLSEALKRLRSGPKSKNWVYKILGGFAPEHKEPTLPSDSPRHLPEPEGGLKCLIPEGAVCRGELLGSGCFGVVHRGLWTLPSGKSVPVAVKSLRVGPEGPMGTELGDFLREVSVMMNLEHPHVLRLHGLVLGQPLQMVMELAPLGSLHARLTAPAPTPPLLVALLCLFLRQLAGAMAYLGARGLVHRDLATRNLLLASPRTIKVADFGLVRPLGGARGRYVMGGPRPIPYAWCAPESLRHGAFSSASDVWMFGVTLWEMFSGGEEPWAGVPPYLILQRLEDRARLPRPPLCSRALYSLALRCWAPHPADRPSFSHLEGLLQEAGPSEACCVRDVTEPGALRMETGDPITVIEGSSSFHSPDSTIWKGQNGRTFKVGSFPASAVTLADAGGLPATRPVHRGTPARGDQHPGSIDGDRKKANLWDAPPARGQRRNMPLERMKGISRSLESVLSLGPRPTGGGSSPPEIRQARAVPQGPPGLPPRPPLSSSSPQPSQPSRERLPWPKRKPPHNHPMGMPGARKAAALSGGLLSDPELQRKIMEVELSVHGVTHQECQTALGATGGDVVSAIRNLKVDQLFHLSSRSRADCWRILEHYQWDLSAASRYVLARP
In short: as §1

[1] = read-out: % Enzyme Activity (relative to DMSO controls) Run 1
[2] = read-out: % Enzyme Activity (relative to DMSO controls) Run 2

T1 sequence (P49840 whole entry): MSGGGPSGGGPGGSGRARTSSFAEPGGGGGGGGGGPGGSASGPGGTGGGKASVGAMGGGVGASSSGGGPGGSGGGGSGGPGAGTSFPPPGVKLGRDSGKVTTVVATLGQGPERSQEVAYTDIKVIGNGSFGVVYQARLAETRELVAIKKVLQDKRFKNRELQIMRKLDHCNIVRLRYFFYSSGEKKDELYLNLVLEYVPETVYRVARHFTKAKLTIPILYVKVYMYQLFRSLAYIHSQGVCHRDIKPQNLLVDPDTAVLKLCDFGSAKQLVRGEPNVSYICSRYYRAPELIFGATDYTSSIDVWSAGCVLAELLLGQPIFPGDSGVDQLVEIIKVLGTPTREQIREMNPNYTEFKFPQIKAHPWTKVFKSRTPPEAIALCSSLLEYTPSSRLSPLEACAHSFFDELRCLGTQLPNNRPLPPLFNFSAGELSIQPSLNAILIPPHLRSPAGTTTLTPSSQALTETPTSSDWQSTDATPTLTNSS

C=CC(=O)Nc1cccc(Nc2nc(Nc3ccc(OCCOC)c(F)c3)ncc2F)c1 [Compound 2]
inhibition at 3 µM (GSK3a): 24.5% | remaining activity at 3 µM (GSK3a; [1]): 76% | remaining activity at 3 µM (GSK3a; [2]): 75% | inhibition at 3 µM (ITK): 92% | remaining activity at 3 µM (ITK; [1]): 7.97% | remaining activity at 3 µM (ITK; [2]): 7.95% | inhibition at 3 µM (NEK5): 39.4% | remaining activity at 3 µM (NEK5; [1]): 60.2% | remaining activity at 3 µM (NEK5; [2]): 60.9% | inhibition at 3 µM (PASK): 6.14% | remaining activity at 3 µM (PASK; [1]): 94.7% | remaining activity at 3 µM (PASK; [2]): 93.1% | inhibition at 3 µM (PKCtheta): 16.1% | remaining activity at 3 µM (PKCtheta; [1]): 83.7% | remaining activity at 3 µM (PKCtheta; [2]): 84.1% | inhibition at 3 µM (TLK2): -6.32% | remaining activity at 3 µM (TLK2; [1]): 108% | remaining activity at 3 µM (TLK2; [2]): 105% | inhibition at 3 µM (TNK1): 83.7% | remaining activity at 3 µM (TNK1; [1]): 15.9% | remaining activity at 3 µM (TNK1; [2]): 16.6%

From patent publication US9492471B2, “Methods of treating a disease or disorder associated with Bruton'S Tyrosine Kinase” (Celgene Avilomics Research, Inc., priority 2013, dated 2016)
